Entries after “also recorded” stand apart in the source; their conditions may differ.
What was measured:
E. coli ATCC 25922 [1] = test: Antibiotic susceptibility testing, growth curves by OD600; type: cell-based; conditions: for effect on E. coli growth (OD600): 150 μM, M9 minimal media, compared to buffer control
Description: (§1) Bacterial strains (E. coli 29522 and E. coli X580) were grown from frozen glycerol stocks in LB media overnight at 37° C. with shaking. These starter cultures were used to inoculate fresh LB broth or M9 minimal media broth at an OD600 of 0.3. Each well of a 96-well plate was filled with 100 μL of sterile media (LB or M9). A sterile solution of RC-Obi or RO-Obi in LB or M9 media was added to the first well of each row and was serially diluted two-fold down the entire row creating a compound concentration gradient of 0.3-0.0025 mM.
(§2) Each well of the plate was then filled with 100 μL of the OD600 0.3 bacterial cell suspensions to give a final volume of 200 μL per well. The plates were incubated at 37° C. and the OD600 of each well was measured every 30 minutes over 24 hours. The plate was shaken briefly prior to each measurement to ensure an even cell suspension. All growth curves were generated in triplicate.

E. coli ATCC 25922 [2] = test: Fluorescence microscopy of fixed cells stained with DAPI and FM 4-64fx; type: cell-based; conditions: RC-Obi 0.1 mM, RO-Obi 0.5 mM, 2 hours at 37° C.
Description: The E. coli cells were also subjected to fluorescence microscopy after treatment with RC-Obi or RO-Obi. E. coli ATCC 29522 cells were grown in LB media for 8 hours at 37° C. then plated on agar media and incubated overnight at 37° C. A single colony was transferred into test tube with fresh LB media and allowed to grow to 0.3 OD600 at 37° C. Cells were diluted by a factor of 10, allowed to grow to OD600 0.3 again. Aliquots of the cell suspension (2 mL each) were treated with RC-Obi (0.1 mM), RO-Obi (0.5 mM), ampicillin (50 μg/mL), or buffer control and incubated for 2 hours at 37° C. Culture aliquots of 250 μL were then used for staining and fluorescence microscopy. Cell membranes and DNA were labeled with the fixable dyes FM 4-64fx and DAPI, respectively, according to the manufacturer's instructions. Cells were fixed with 2.6% paraformaldehyde+0.008% glutaraldehyde as previously described. Fixed cells were imaged on 1% agarose pads with an Olympus BX51 microscope equipped with a CCD OrcaERG camera (Hamamatsu Photonics, Bridgewater, N.J.), an Olympus Plan N 100X/1.25 Oil Ph3 objective, and an X-Cite 120 LED light source (Lumen Dynamics). Nikon elements were used for image capture using the DAPI and rhodamine filter sets from Chroma. Images were processed using NIS—Elements Basic Research Microscope Imaging Software (Nikon Corp.).

[3] = reported; cited from earlier work
E. coli X580 = test: Growth curves of β-lactam hypersensitive E. coli X580; type: cell-based; conditions: varying concentrations of RC-Obi
Description: as §1, §2
(§3) E. coli ATCC 25922 was passaged in LB broth through 6 overnight cycles in the presence of 0.25 mM RC-Obi β-lactone with fresh doses of antibiotic added every 18 hours for 6 days straight.

Streptococcus pneumonia = conditions: reported; cited from earlier work
[4] = previous studies; cited from earlier work
[5] = test system: 6× passaged E. coli ATCC 25922; test: Growth curves of 6× passaged E. coli in the presence of RC-Obi; type: cell-based; conditions: 6 overnight cycles in LB broth with 0.25 mM RC-Obi, then varying concentrations in LB broth
Description: as §3

SMILES | effect on E. coli growth (OD600) (E. coli ATCC 25922 [1]) | cell clumping phenotype (E. coli ATCC 25922 [2]) | antibacterial activity [3] | sensitivity compared to E. coli ATCC 29522 (E. coli X580) | efficacy in murine septicemia model (Streptococcus pneumonia) | time until growth recovered to normal levels (E. coli ATCC 25922 [1]; after treatment with RC-Obi) [h] | effect on E. coli growth (OD600) at various concentrations (E. coli ATCC 25922 [1]; various concentrations of RC-Obi, or buffer control) | hydrolysis in aqueous solutions [4] | susceptibility after passaging [5]
O=C(NC(C(=O)O)C(O)Cc1ccc([N+](=O)[O-])cc1)c1cccc(O)c1O (centres unmarked) [RO-Obi] | minimal effect on E. coli growth | moderate cell clumping |  |  |  |  |  |  | 
O=C(N[C@@H]1C(=O)O[C@@H]1Cc1ccc([N+](=O)[O-])cc1)c1cccc(O)c1O [RC-Obi, obafluorin] | inhibited the growth of E. coli; also recorded: halted E. coli growth | induced a cell clumping phenotype; also recorded: severe cell clumping | broad-spectrum antibacterial activity | enhanced sensitivity and slower growth recovery | demonstrated efficacy | ~10 | inhibited the growth of E. coli in a dose-dependent manner | hydrolyzes rapidly | still susceptible to the antibiotic

— US10655153B2, “Chemoenzymatic synthesis of peptide beta-lactones and beta-hydroxy acids” (Washington University, priority 2017, dated 2020)
